Experimental data published in patent publication US7332501B2, “Indol-3-yl-carbonyl-spiro-piperidine derivatives as V1a receptor antagonists” (Hoffmann-La Roche Inc., priority 2005, dated 2008).

biological target: T1, human V1a receptor (Homo sapiens, UniProt P37288); experiment: human V1a receptor binding (3H-Vasopressin SPA, HEK293 membranes); details: displacement of 4 nM 3H-Vasopressin, membranes of HEK293 cells transiently transfected with human V1a receptor; Ki from IC50 by Cheng-Prussoff
T1 construct: expressed in transfected cells; host or cells: HEK293 cells, transiently transfected; cell membranes
T1 sequence (P37288 whole entry): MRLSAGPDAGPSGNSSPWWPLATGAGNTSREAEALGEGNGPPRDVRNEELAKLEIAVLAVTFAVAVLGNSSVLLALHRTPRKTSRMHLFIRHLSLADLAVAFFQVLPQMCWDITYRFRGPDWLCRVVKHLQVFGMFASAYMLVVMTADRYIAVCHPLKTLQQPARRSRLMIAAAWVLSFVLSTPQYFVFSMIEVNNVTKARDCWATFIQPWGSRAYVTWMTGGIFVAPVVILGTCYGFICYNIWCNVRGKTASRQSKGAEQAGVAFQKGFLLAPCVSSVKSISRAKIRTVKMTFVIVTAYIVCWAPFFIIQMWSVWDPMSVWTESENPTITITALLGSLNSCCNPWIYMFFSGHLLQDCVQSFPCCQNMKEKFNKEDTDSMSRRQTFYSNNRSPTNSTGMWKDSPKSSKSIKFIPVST
Summary of the method: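 Ki derived by Cheng-Prusoff from IC50 curves normalised to specific binding. Serially diluted compounds (in 2% DMSO) competed with 3H-vasopressin (4 nM working solution) for 1 h at room temperature on SPA beads bearing membranes of transiently transfected HEK293 cells; unlabelled vasopressin defined non-specific counts.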

In order of falling Ki:
1. COCc1ncc(Cn2cc(C(=O)N3CCC4(CC3)OC(=O)c3cc(F)ccc34)c3ccc(Cl)cc32)c(N)n1 [Example 162, 1′-[(1-{[4-Amino-2-(methoxymethyl)pyrimidin-5-yl]methyl}-6-chloro-1H-indol-3-yl)carbonyl]-5-fluoro-3H-spiro[2-benzofuran-1,4′-piperidin]-3-one]  65.3 nM
2. O=C1OC2(CCN(C(=O)c3cn(-c4ccccc4-c4ccccc4)c4cc(Cl)ccc34)CC2)c2ccccc21 [Example 157, 1′-[(1-Biphenyl-2-yl-6-chloro-1H-indol-3-yl)carbonyl]-3H-spiro[2-benzofuran-1,4′-piperidin]-3-one]  39.8 nM
3. O=C1OC2(CCN(C(=O)c3cn(C(=O)c4cccc(-c5ccccc5)c4)c4cc(Cl)ccc34)CC2)c2ccccc21 [Example 158, 1′-{[1-(Biphenyl-3-ylcarbonyl)-6-chloro-1H-indol-3-yl]carbonyl}-3H-spiro[2-benzofuran-1,4′-piperidin]-3-one]  38.7 nM
4. Cc1ncc(Cn2cc(C(=O)N3CCC4(CC3)OC(=O)c3cc(F)ccc34)c3ccc(Cl)cc32)c(N)n1 [Example 163, 1′-({1-[(4-Amino-2-methylpyrimidin-5-yl)methyl]-6-chloro-1H-indol-3-yl}carbonyl)-5-fluoro-3H-spiro[2-benzofuran-1,4′-piperidin]-3-one]  15.3 nM
5. O=C1OC2(CCN(C(=O)c3cn(-c4ccccn4)c4cc(Cl)ccc34)CC2)c2ccccc21 [Example 159, 1-[(6-Chloro-1-pyridin-2-yl-1H-indol-3-yl)carbonyl]-3H-spiro[2-benzofuran-1,4′-piperidin]-3-one]  7.6 nM
6. O=C1OC2(CCN(C(=O)c3cn(-c4cccc(F)c4)c4cc(Cl)ccc34)CC2)c2ccccc21 [Example 155, 1′-{[6-Chloro-1-(3-fluorophenyl)-1H-indol-3-yl]carbonyl}-3H-spiro[2-benzofuran-1,4′-piperidin]-3-one]  5 nM
7. O=C1OC2(CCN(C(=O)c3cn(-c4ccccn4)c4cc(Cl)ccc34)CC2)c2ccc(F)cc21 [Example 160, 1-[(6-Chloro-1-pyridin-2-yl-1H-indol-3-yl)carbonyl]-5-fluoro-3H-spiro[2-benzofuran-1,4′-piperidin]-3-one]  5 nM
8. O=C1OC2(CCN(C(=O)c3cn(Cc4cccc(F)c4)c4cc(Cl)ccc34)CC2)c2ccc(Br)cc21 [Example 151, 5-Bromo-1′-{[6-chloro-1-(3-fluorobenzyl)-1H-indol-3-yl]carbonyl}-3H-spiro[2-benzofuran-1,4′-piperidin]-3-one]  4.8 nM
9. O=C(Cn1cc(C(=O)N2CCC3(CC2)OC(=O)c2cc(Br)ccc23)c2ccc(Cl)cc21)c1cccc(F)c1 [Example 152, 5-Bromo-1′-({6-chloro-1-[2-(3-fluorophenyl)-2-oxoethyl]-1H-indol-3-yl}carbonyl)-3H-spiro[2-benzofuran-1,4′-piperidin]-3-one]  4.4 nM
10. Cc1cc(Cn2cc(C(=O)N3CCC4(CC3)OC(=O)c3cc(F)ccc34)c3ccc(Cl)cc32)c(Cl)nn1 [Example 165, 1′-({6-Chloro-1-[(3-chloro-6-methylpyridazin-4-yl)methyl]-1H-indol-3-yl}carbonyl)-5-fluoro-3H-spiro[2-benzofuran-1,4′-piperidin]-3-one]  4.3 nM
11. O=C1OC2(CCN(C(=O)c3cn(Cc4cc(F)cc(F)c4)c4cc(Cl)ccc34)CC2)c2ccc(Br)cc21 [Example 150, 5-Bromo-1′-{[6-chloro-1-(3,5-difluorobenzyl)-1H-indol-3-yl]carbonyl}-3H-spiro[2-benzofuran-1,4′-piperidin]-3-one]  3.8 nM
12. O=C1OC2(CCN(C(=O)c3cn(CCc4ccncc4)c4cc(Cl)ccc34)CC2)c2ccc(F)cc21 [Example 167, 1′-{[6-Chloro-1-(2-pyridin-4-ylethyl)-1H-indol-3-yl]carbonyl}-5-fluoro-3H-spiro[2-benzofuran-1,4′-piperidin]-3-one]  3 nM
13. O=C1OC2(CCN(C(=O)c3cn(Cc4cccnc4)c4cc(Cl)ccc34)CC2)c2ccccc21 [Example 172, 1′-{[6-Chloro-1-(pyridin-3-ylmethyl)-1H-indol-3-yl]carbonyl}-3H-spiro[2-benzofuran-1,4′-piperidin]-3-one]  3 nM
14. O=C1OC2(CCN(C(=O)c3cn(Cc4ccc(Cl)nc4)c4cc(Cl)ccc34)CC2)c2ccc(F)cc21 [Example 164, 1′-({6-Chloro-1-[(6-chloropyridin-3-yl)methyl]-1H-indol-3-yl}carbonyl)-5-fluoro-3H-spiro[2-benzofuran-1,4′-piperidin]-3-one]  2.9 nM
15. O=C1OC2(CCN(C(=O)c3cn(Cc4ccccn4)c4cc(Cl)ccc34)CC2)c2ccc(F)cc21 [Example 171, 1′-{[6-Chloro-1-(pyridin-2-ylmethyl)-1H-indol-3-yl]carbonyl}-5-fluoro-3H-spiro[2-benzofuran-1,4′-piperidin]-3-one]  2.7 nM
16. O=C1OC2(CCN(C(=O)c3cn(Cc4ccncc4)c4cc(Cl)ccc34)CC2)c2ccc(F)cc21 [Example 166, 1′-{[6-Chloro-1-(pyridin-4-ylmethyl)-1H-indol-3-yl]carbonyl}-5-fluoro-3H-spiro[2-benzofuran-1,4′-piperidin]-3-one]  2.4 nM
17. O=C1OC2(CCN(C(=O)c3cn(Cc4ccncc4)c4cc(Cl)ccc34)CC2)c2ccccc21 [Example 168, 1′-{[6-Chloro-1-(pyridin-4-ylmethyl)-1H-indol-3-yl]carbonyl}-3H-spiro[2-benzofuran-1,4′-piperidin]-3-one]  2.4 nM
18. O=C1OC2(CCN(C(=O)c3cn(Cc4cnccn4)c4cc(Cl)ccc34)CC2)c2ccc(F)cc21 [Example 173, 1′-{[6-Chloro-1-(pyrazin-2-ylmethyl)-1H-indol-3-yl]carbonyl}-5-fluoro-3H-spiro[2-benzofuran-1,4′-piperidin]-3-one]  2.3 nM
19. Cc1cc(Cn2cc(C(=O)N3CCC4(CC3)OC(=O)c3cc(F)ccc34)c3ccc(Cl)cc32)ccn1 [Example 161, 1′-({6-Chloro-1-[(2-methylpyridin-4-yl)methyl]-1H-indol-3-yl}carbonyl)-5-fluoro-3H-spiro[2-benzofuran-1,4′-piperidin]-3-one]  2.2 nM
20. Cc1oc(-c2ccccc2)nc1C(=O)Cn1cc(C(=O)N2CCC3(CC2)OC(=O)c2cc(F)ccc23)c2ccc(Cl)cc21 [Example 170, 1′-({6-Chloro-1-[2-(5-methyl-2-phenyl-1,3-oxazol-4-yl)-2-oxoethyl]-1H-indol-3-yl}carbonyl)-5-fluoro-3H-spiro[2-benzofuran-1,4′-piperidin]-3-one]  2.2 nM
21. O=C(Cn1cc(C(=O)N2CCC3(CC2)OC(=O)c2cc(F)ccc23)c2ccc(Cl)cc21)c1ccccn1 [Example 169, 1′-{[6-Chloro-1-(2-oxo-2-pyridin-2-ylethyl)-1H-indol-3-yl]carbonyl}-5-fluoro-3H-spiro[2-benzofuran-1,4′-piperidin]-3-one]  1.5 nM
22. O=C(Cn1cc(C(=O)N2CCC3(CC2)OC(=O)c2ccccc23)c2ccc(Cl)cc21)c1ccc(F)c(F)c1 [Example 154, 1′-({6-Chloro-1-[2-(3,4-difluorophenyl)-2-oxoethyl]-1H-indol-3-yl}carbonyl)-3H-spiro[2-benzofuran-1,4′-piperidin]-3-one]  1.3 nM
23. O=C(Cn1cc(C(=O)N2CCC3(CC2)OC(=O)c2ccccc23)c2ccc(Cl)cc21)c1ccccc1F [Example 153, 1′-({6-Chloro-1-[2-(2-fluorophenyl)-2-oxoethyl]-1H-indol-3-yl}carbonyl)-3H-spiro[2-benzofuran-1,4′-piperidin]-3-one]  1 nM
